Test results published in US20080281526A1, “Methods For Molecular Toxicology Modeling” (priority 2004, published 2008).
Like-named read-outs stand apart in the source and are kept apart here.

Test system: rat liver tissue
Protocol: From the nucleic acid hybridization data, a prediction score is calculated for that sample and compared to a reference score from a toxicity reference database according to the following equation. The sample prediction score=ΣwiR^FC^i. “i” is the index number for each gene in a gene expression profile to be evaluated. “wi” is the PLS weight (or PLS score, see Table 2 for an exemplary list of PLS scores for a general kidney toxicity model) for each gene. “R^FC^i” is the RMA fold-change value for the i^th gene, as determined from a normalized RMA matrix of gene expression data from the sample (described above). The PLS weight multiplied by the RMA fold-change value gives a gene regulation score for each gene, and the regulation scores for all the individual genes are added to give a prediction score for the sample.
To establish a toxicity prediction score cut-off value for a toxicity model, the true-positive and false positive rates for each possible score cut-off value are computed, using the scores from all tox and non-tox samples in the training set. This generates an ROC curve, which we use to set the cut-off score at the point on the ROC curve corresponding to ˜5% false positive rate. For example, in a kidney toxicity model of Table 2, a cut-off prediction score is about 0.318.
The conversion algorithm was tested using the liver toxicity model described in U.S. Provisional Application Ser. No. 60/559,949 and herein incorporated by reference.
The first step to using a conversion algorithm is to map microarray fragments. The RGU34 A microarray fragments which comprise the liver toxicity model were mapped to the RAE2.0 microarray. The liver toxicity model is based on 1,100 Affymetrix GeneChip® RGU34 A microarray fragments. […] See Affymetrix's “User's Guide to Product Comparison Spreadsheets” which is herein incorporated by reference.
Once the microarray fragments are mapped, training samples are selected to calculate the conversion model weights. The inventors searched Gene Logic's ToxExpress® reference database, a database which is built on the Affymetrix RGU34A platform, for samples that covered a large amount of interquartile range with respect to signal intensity. […] The samples maximized Ei(Max(Xij)−Min(Xij)), where i indexes genes and j indexes samples.
For this reason, a training set consisting of 100 compounds and vehicles from rat liver tissue was selected.
The 100 training samples were used to train the weights in the conversion algorithm. This step is important because it provides for the quantitative aspect of the conversion. The weight training was performed based on a multiple regression analysis with probe values as the independent variables and RMA expression as the sum of the dependent variables.
Test samples were evaluated using the trained conversion algorithm. The multiple regression model was built on the 11 perfect match probe intensities and generated a predicted RGU34 expression value from a weighted sum of RAE 2.0 probe values. Each test array was scaled to an average probe intensity of 10 (log scale). The conversion algorithm used is given as:
Yi^RGU34=βio+Σβij LOG(Xij^RAE2.0/S)

[1] = RAE2.0 converted RMA data, liver predictive model
[2] = RGU34 RMA data, liver predictive model

Structure (SMILES)	number of test samples predicted as toxic out of the total number of samples for that compound [1]	number of test samples predicted as toxic out of the total number of samples for that compound [2]	number of test samples predicted as toxic out of the total number of samples for that compound (rat, in vivo)
CN(C)CCC=C1c2ccccc2CCc2ccccc21 [Amitryptilene]	2/2	1/2	–
CN(C)CCC(c1ccc(Cl)cc1)c1ccccn1 (stereo not drawn) [Chlorpheniramine, chlorpheniramine]	–	–	0/3
CCOC(=O)C(C)(C)Oc1ccc(Cl)cc1 [Clofibrate]	–	–	0/3
O=C(O)c1cc(-c2ccc(F)cc2F)ccc1O [Diflunisal, diflunisal]	–	–	2/3
C[C@]12CC[C@@H]3c4ccc(O)cc4CC[C@H]3[C@@H]1CC[C@@H]2O [Estradiol, estradiol]	–	–	3/3
CCSCC[C@H](N)C(=O)O [Ethionine, ethionine]	3/3	3/3	–
CCC1(c2ccccc2)C(=O)NC(=O)NC1=O [Phenobarbital, phenobarbital]	3/3	3/3	–
CN(CCOc1ccc(CC2SC(=O)NC2=O)cc1)c1ccccn1 (stereo not drawn) [Rosiglitazone, rosiglitazone]	–	–	0/3
[H]/N=C(/N)N[C@H]1[C@H](O)[C@@H](O)[C@H](O[C@@H]2O[C@@H](C)[C@](O)(C=O)[C@H]2O[C@@H]2O[C@@H](CO)[C@H](O)[C@@H](O)[C@@H]2NC)[C@@H](N/C(N)=N\[H])[C@@H]1O [Streptomycin, streptomycin]	–	–	0/3
